Experimental data: patent US11236106B2, “Cycloalkane-1,3-diamine derivative” (Daiichi Sankyo Company, Limited, priority 2018, dated 2022)
Structures can show the parent of a compound that is named as a salt. Where two headings read alike, the source gives them in different places.

Target: T1, menin and MLL (menin, Flag tagged; biotinylated MLL1 peptide 1-46aa) (Homo sapiens, UniProt O00255)
T1 sequence (O00255 1-610): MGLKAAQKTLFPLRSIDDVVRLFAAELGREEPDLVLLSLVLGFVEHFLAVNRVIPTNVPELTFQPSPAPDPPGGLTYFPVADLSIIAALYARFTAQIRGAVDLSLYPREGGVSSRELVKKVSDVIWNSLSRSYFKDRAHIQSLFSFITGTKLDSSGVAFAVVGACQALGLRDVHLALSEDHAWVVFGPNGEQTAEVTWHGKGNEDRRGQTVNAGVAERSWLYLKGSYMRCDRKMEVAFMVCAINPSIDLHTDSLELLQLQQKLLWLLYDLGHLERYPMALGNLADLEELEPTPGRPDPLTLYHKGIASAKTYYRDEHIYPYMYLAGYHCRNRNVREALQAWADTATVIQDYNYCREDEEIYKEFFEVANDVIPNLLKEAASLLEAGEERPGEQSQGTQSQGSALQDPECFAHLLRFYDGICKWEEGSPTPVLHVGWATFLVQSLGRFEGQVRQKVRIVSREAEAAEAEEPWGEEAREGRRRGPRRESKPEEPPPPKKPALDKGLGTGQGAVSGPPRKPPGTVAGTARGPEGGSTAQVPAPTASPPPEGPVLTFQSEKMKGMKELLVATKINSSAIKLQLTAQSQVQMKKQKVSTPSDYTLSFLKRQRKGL
Assay: biochemical

[1] = cell free IC50 (nM), 1 nM menin, 10 nM biotinylated MLL1 peptide, AlphaLISA
[2] = IC50, binding inhibitory activity between menin and MLL, AlphaLISA, 1 nM menin, 10 nM biotinylated MLL1 peptide

Description: Then, the fluorescence signal by AlphaLISA (registered trademark, PerkinElmer Co., Ltd.) was measured using a plate reader (PerkinElmer Co., Ltd., EnVisionXcite).

SMILES	IC50 [1]	further results
CN(c1ncnc2sc(CC(F)(F)F)cc12)[C@@H]1CC[C@H](NCc2ccc(-c3ccc(=O)[nH]c3)cc2)C1 [Example 11, 5-[4-({[(1S,3R)-3-{methyl[6-(2,2,2-trifluoroethyl)thieno[2,3-d]pyrimidin-4-yl]amino}cyclopentyl]amino}methyl)phenyl]pyridin-2(1H)-one Hydrochloride]	63.9 nM	
CNC(=O)c1cccc(-c2ccc(CN[C@H]3CC[C@@H](N(C)c4ncnc5sc(CC(F)(F)F)cc45)C3)cc2)c1 [Example 66, N-methyl-4′-({[|(1S,3R)-3-{methyl[6-(2,2,2-trifluoroethyl)thieno[2,3-d]pyrimidin-4-yl]amino}cyclopentyl]amino}methyl)[1,1′-biphenyl]-3-carboxamide hydrochloride]		IC50 [2]: 6.7 nM
O=C1CCCN1Cc1ccc(CN[C@H]2CCC[C@@H](Nc3ncnc4sc(CC(F)(F)F)cc34)C2)cc1 [Example 38, 1-{[4-({[(1S,3R)-3-{[6-(2,2,2-trifluoroethyl)thieno[2,3-d]pyrimidin-4-yl[amino}cyclohexy]amino}methyl)phenyl]methyl}pyrrolidin-2-one hydrochloride]	1850 nM	
CNc1nc(N(C)[C@H]2C[C@@H](NCc3ccc(-c4cnc(OC)c(OC)c4)cc3)C[C@H]2O)c2cc(CC(F)(F)F)sc2n1 [Example 73, (1R,2S,4R)-4-({[4-(5,6-dimethoxypyridin-3-yl)phenyl]methyl}amino)-2-{methyl[2-(methylamino)-6-(2,2,2-trifluoroethyl)thieno[2,3-d]pyrimidin-4-yl]amino}cyclopentan-1-ol hydrochloride]		IC50 [2]: 6.5 nM
CNc1nc(N(C)[C@H]2C[C@@H](NCc3ccc(-c4cnn(S(C)(=O)=O)c4)cc3)C[C@H]2O)c2cc(CC(F)(F)F)sc2n1 [Example 62, (1R,2S,4R)-4[({4[1-(methanesulfonyl)-1H-pyrazol-4-yl]phenyl}methyl)amino]-2-{methyl[2-(methylamino)-6-(2,2,2-trifluoroethyl)thieno[2,3-d]pyrimidin-4-yl]amino}cyclopentan-1-ol hydrochloride]		IC50 [2]: 2 nM
COc1cncc(-c2ccc(CN[C@H]3C[C@@H](Nc4ncnc5sc(CC(F)(F)F)cc45)C[C@@H](C(=O)N(C)C)C3)cc2)c1 (single isomer, unassigned) [Example 17A, Hydrochloride]	2260 nM	
COc1ncc(-c2ccc(CN[C@H]3C[C@@H](O)[C@@H](N(C)c4ncnc5sc(CC(F)(F)F)cc45)C3)cc2)nc1OC [Example 96, (1R,2S,4R)-4-({[4-(5,6-dimethoxypyrazin-2-yl)phenyl]methyl}amino)-2-{methyl[6-(2,2,2-trifluoroethyl)thieno[2,3-d]pyrimidin-4-yl]amino}cyclopentan-1-ol hydrochloride]		IC50: 2.7 nM
C=CS(=O)(=O)NCCCNC(=O)c1ccc(CN[C@H]2CC[C@@H](N(C)c3ncnc4sc(CC(F)(F)F)cc34)C2)cc1 [Example 34, N-{-3-[(ethenesulfonyl)amino]propyl}-4-({[(1S,3R)-3-{methyl[6-(2,2,2-trifluoroethyl)thieno[2,3-d]pyrimidin-4-yl]amino}cyclopentyl]amino}methyl)benzamide hydrochloride]	413 nM	
COc1nc(N(C)[C@H]2C[C@@H](NCc3ccc(-c4cc(OC)c(OC)cn4)cc3)C[C@H]2O)c2cc(CC(F)(F)F)sc2n1 [Example 116, (1R,2S,4R)-4-({[4-(4,5-dimethoxypyridin-2-yl)phenyl]methyl}amino)-2-{[2-methoxy-6-(2,2,2-trifluoroethyl)thieno[2,3-d]pyrimidin-4yl](methyl)amino}cyclopentan-1-ol hydrochloride]		IC50: 1 nM
CC(=O)Nc1ccc(CN[C@H]2CCC[C@@H](Nc3ncnc4sc(CC(F)(F)F)cc34)C2)cc1 [Example 29, N-[4-({[(1S,3R)-3-{[6-(2,2,2-trifluoroethyl)thieno[2,3-d]pyrimidin-4-yl]amino}cyclohexyl]amino}methyl)phenyl]acetamide hydrochloride]	464 nM	
COc1cncc(-c2ccc(CN[C@H]3CC[C@@H](N(C)c4ncnc5sc(C6CC6)cc45)C3)cc2)c1 [Example 45, (1R,3S)-N^1-(6-cyclopropylthieno[2,3-d]pyrimidin-4-yl)-N^3-{[4-(5-methoxypyridin-3-yl)phenyl]methyl}-N^1-methylcyclopentane-1,3-diamine hydrochloride]	33.3 nM	
C=CC(=O)Nc1cccc(Nc2ccc(CN[C@H]3CC[C@@H](N(C)c4nc(NC)nc5sc(CC(F)(F)F)cc45)C3)cc2)c1 [Example 55, N-{3-[4-({[(1S,3R)-3{methyl[2-(methylamino)-6-(2,2,2-trifluoroethyl)thieno[2,3-d]pyrimidin-4-yl]amino}cyclopentyl]amino}methyl)anilino]phenyl}prop-2-enamide hydrochloride]	9.8 nM	
FC(F)(F)Cc1cc2c(N[C@@H]3CCC[C@H](NCc4ccc(-c5ccncc5)cc4)C3)ncnc2s1 [Example 40, (1S,3R)-N^1-{[4-(pyridin-4-yl)phenyl]methyl}-N^3-[6-(2,2,2-trifluoroethyl)thieno[2,3-d]pyrimidin-4-yl]cyclohexane-1,3-diamine hydrochloride]	265 nM	
COc1cncc(-c2ccc(CN[C@@H]3C[C@H](N(C)c4ncnc5sc(CC(F)(F)F)cc45)[C@H](O)[C@@H]3O)cc2)c1 [Example 20A, (1S,2R,3R,5S)-3-({[4-(5-methoxypyridin-3-yl)phenyl]methyl}amino)-5-{methyl[6-(2,2,2-trifluoroethyl)thieno[2,3-d]pyrimidin-4-yl]amino}cyclopentane-1,2-diol Hydrochloride]	3.9 nM	
COc1cncc(-c2ccc(CN[C@@H]3C[C@H](N(C)c4ncnc5sc(CC(F)(F)F)cc45)[C@@H](O)[C@H]3O)cc2)c1 [Example 20B, (1R,2S,3R,5S)-3-({[4-(5-methoxypyridin-3-yl)phenyl]methyl}amino)-5-{methyl[6-(2,2,2-trifluoroethyl)thieno[2,3-d]pyrimidin-4-yl]amino}cyclopentane-1,2-diol Hydrochloride]	16.4 nM	
CN(c1ncnc2sc(CC(F)(F)F)cc12)[C@@H]1CC[C@H](NCc2ccc(N3CCc4ccccc43)cc2)C1 [Example 56, (1R,3S)-N^3-{[4-(2)-3-dihydro-1H-indol-1-yl)phenyl]methyl}-N^1-methyl-N^1-[6-(2,2,2-trifluoroethyl)thieno[2,3-d]pyrimidin-4-yl]cyclopentane-1,3-diamine hydrochloride]	43.6 nM	
COc1cc(-c2ccc(CN[C@H]3C[C@@H](OC)[C@@H](N(C)c4ncnc5sc(CC(F)(F)F)cc45)C3)cc2)nnc1OC [Example 127, (1R,3S,4R)—N^1-{[4-(5,6-dimethoxypyridazin-3-yl)phenyl]methyl}-4-methoxy-N^3-methyl-N^3-[6-(2,2,2-trifluoroethyl)thieno[2,3-d]pyrimidin-4-yl]cyclopentane-1,3-diamine Hydrochloride]		IC50 [2]: 1.6 nM
COc1cncc(-c2ccc(CN[C@H]3CC[C@@H](N(C)c4ncnc5sc(C6COC6)cc45)C3)cc2)c1 [Example 48, (1R,3S)-N^3-{[4-(5-methoxypyridin-3-yl)phenyl]methyl}-N^1-methyl-N^1-[6-(oxetan-3-yl)thieno[2,3-d]pyrixnidin-4-yl]cyclopentane-1,3-diamine hydrochloride]	1420 nM	
N#Cc1cc2cc(CN[C@@H]3CC[C@@H](Nc4ncnc5sc(CC(F)(F)F)cc45)C3)ccc2[nH]1 [Example 1, 5-({[(1R,3R)-3-{[6-(2,2,2-trifluoroethyl)thieno[2,3-d]pyrimidin-4-yl]amino}cyclopentyl]amino}methyl)-1H-indole-2-carbonitrile Hydrochloride]	494 nM	
COc1cncc(-c2ccc(CN[C@H]3CC[C@@H](N(C)c4ncnc5sc(CC6CC6)cc45)C3)cc2)c1 [Example 9, (1R,3S)—N^1-[6-(cyclopropylmethyl)thieno[2,3-d]pyrimidin-4-yl]-N^3-{[4-(5-methoxypyridin-3-yl)phenyl]methyl}-N^1-methylcyclopentane-1,3-diamine Hydrochloride]	22.2 nM	
COc1cncc(-c2ccc(CN[C@H]3CC[C@@H](N(C)c4nc(C)nc5sc(CC(F)(F)F)cc45)C3)cn2)c1 [Example 46, (1R,3S)-N^3-[(5′-methoxy[2,3′-bipyridine]-5-yl)methyl]-N^1-methyl-N^1-[2-methyl-6-(2,2,2-trifluoroethyl)thieno[2,3-d]pyrimidin-4-yl]cyclopentane-1,3-diamine hydrochloride]	39.4 nM	
CN(c1ncnc2sc(CC(F)(F)F)cc12)[C@@H]1CC[C@H](NCc2ccc(C(=O)NCc3cnn(C)c3)cc2)C1 [Example 49, N-[(1-methyl-1H-pyrazol-4-yl)methyl]-4-({[(1S,3R)-3-{methyl[6-(2,2,2-trifluoroethyl)thieno[2,3-d]pyrimidin-4-yl]amino}cyclopentyl]amino}methyl)benzamide hydrochloride]	24 nM	
COc1cc(-c2ccc(CN[C@H]3C[C@@H](O)[C@@H](N(C)c4ncnc5sc(CC(F)(F)F)cc45)C3)cc2)nnc1N(C)C [Example 98, (1R,2S,4R)-4-[({4-[6-(dimethylamino)-5-methoxypyridazin-3-yl]phenyl}methyl)amino]-2-{methyl[6-(2,2,2-trifluoroethyl)thieno[2,3-d]pyrimidin-4-yl]amino}cyclopentan-1-ol hydrochloride]		IC50 [2]: 1.9 nM
